Publication PMC8837819, “Syrbactin-class dual constitutive- and immuno-proteasome inhibitor TIR-199 impedes myeloma-mediated bone degeneration in vivo” (Bioscience Reports, 2022)
Like-named read-outs stand apart in the source and are kept apart here.

Tests used:
[1] = system: PSMB9-FLAG (immunoproteasome); experiment: Immunoproteasome activity assay on immunoprecipitated PSMB9-FLAG (Ac-PAL-AMC); format: biochemical, human; conditions: n=3; for PSMB9 activity at single concentration: 100 nM for 30 min, Ac-PAL-AMC
Source text: Also refer to Supplementary Figure S2.

[2] = system: PSMB5 (AA/TV) bortezomib-resistant mutant; conditions: Suc-LLVY-AMC, relative to DMSO, n=3
HEK293T cells = experiment: Immunoblot of proteasome substrates and ubiquitylated proteins in HEK293T cells; format: cell-based, human
Description: Data were normalized to corresponding GAPDH levels. […] (D) HEK-293T cells were treated in the absence (DMSO) or presence of 0.5 μM of TIR-199 for 6 h. Cell lysates were subjected to immunoblotting with the indicated antibodies. Similar results were obtained in three independent replicates. (E) HEK-293T cells were treated in the absence (DMSO) or presence of either 0.1 μM of bortezomib (BTZ) or 0.2 μM of TIR-199 for 4 h. Cell lysates were subjected to immunoblotting with the indicated antibodies. Similar results were obtained in two independent replicates.

[3] = target: T1, PSMB5-FLAG (chymotryptic-like activity, constitutive 26S proteasome) (Homo sapiens, UniProt P20618+P28074); experiment: Proteasome activity assay on immunoprecipitated WT PSMB5-FLAG (Suc-LLVY-AMC); format: biochemical; conditions: for proteasomal activity of WT PSMB5: Suc-LLVY-AMC, relative to DMSO, n=3
T1 construct: made in house; host or cells: HEK293 cells stably expressing PSMB5-FLAG; FLAG immunoprecipitate
Description: (B) Wildtype (WT) PSMB5-FLAG was immunoprecipitated from HEK293 cells stably expressing PSMB5-FLAG. […] Also refer to Supplementary Figure S1. (D) HEK-293T cells were treated in the absence (DMSO) or presence of 0.5 μM of TIR-199 for 6 h. Cell lysates were subjected to immunoblotting with the indicated antibodies. […] (E) HEK-293T cells were treated in the absence (DMSO) or presence of either 0.1 μM of bortezomib (BTZ) or 0.2 μM of TIR-199 for 4 h. Cell lysates were subjected to immunoblotting with the indicated antibodies.

[4] = target: PSMB8-FLAG (immunoproteasome) (Homo sapiens, UniProt P20618+P28062); experiment: Immunoproteasome activity assay on immunoprecipitated PSMB8-FLAG (Ac-ANW-AMC); conditions: 100 nM for 30 min; Ac-ANW-AMC; n=3
Description: (§1) Immunoproteasome activity assays were carried out as stated previously [32]. Briefly, HEK293 cells transiently overexpressing FLAG-tagged PSMB9 or PSMB8 were treated with IFNγ (100 ng/ml; 48 h) to induce expression of immunoproteasome. […] Immunoproteasomes were affinity purified using FLAG agarose from 2 mg of cell lysate. Peptidase activities of purified immunoproteasomes were assayed using 100 μM fluorogenic peptide substrates Ac-ANW-AMC for PSMB8 and Ac-PAL-AMC for PSMB9 (Boston Biochem) for 30 min.
(§2) (B) PSMB8 or PSMB9 was immunoprecipitated for 48 h in 100 ng/ml IFNγ-stimulated HEK293 cells transiently overexpressing either PSMB8-FLAG or PSMB9-FLAG. […] Fluorescence signal upon release of AMC was measured in a Tecan plate reader. […] Results are means ± S.D. for n=3 replicates.

[5] = target: PSMB8-FLAG (immunoproteasome) (Homo sapiens, UniProt P28062); experiment: as above
Description: as §1, §2

[6] = system: endogenous proteasome in MM.1S cells; experiment: Chymotryptic-like proteasome activity in lysates of treated MM.1S cells; format: cell-based, human; conditions: 0.5 μM TIR-199 for 0.5 h vs DMSO, Suc-LLVY-AMC, n=3
[7] = system: proteasome in primary CD138+ myeloma cells; experiment: Chymotryptic-like proteasome activity in primary CD138+ myeloma cells of patients; format: cell-based, human; conditions: CD138+ cells of two refractory patients; 500 nM for 0.5 h; Suc-LLVY-AMC; n=3
Source text: CD138^+ myeloma cells were purified from the bone marrow aspirates which were obtained from HIPAA compliant de-identified consenting patients in accordance with Institutional Review Board protocol: 181027 approved on 9 October 2019 at UCSD. The bone marrow aspirates were kindly provided by Dr. Caitlin Costello, Moores Cancer Center, UCSD. CD138^+ primary myeloma cells were purified from fresh bone marrow aspirates of multiple myeloma patients using EasySep™ Human Whole Blood and Bone Marrow CD138 Positive Selection Kit II (StemCell Technologies) following manufacturer’s instructions. Viable cells were collected for further analyses.
Figure 1 TIR-199 is a syrbactin-based constitutive proteasome inhibitor (A) Chemical structure of syrbactin derivative TIR-199. (B) Wildtype (WT) PSMB5-FLAG was immunoprecipitated from HEK293 cells stably expressing PSMB5-FLAG. […] (C) Proteasome activity in lysates from MM.1S and primary CD138^+ myeloma cells purified from two patients treated with DMSO or 0.5 μM TIR-199 for 0.5 h was measured with Suc-LLVY-AMC. *P<0.05; **P<0.01; ***P<0.001 (compared with control treated, two-tailed paired Student’s t test, mean ± SD from n=3 replicates). Also refer to Supplementary Figure S1. (D) HEK-293T cells were treated in the absence (DMSO) or presence of 0.5 μM of TIR-199 for 6 h. Cell lysates were subjected to immunoblotting with the indicated antibodies. […]

[8] = system: MM.1S myeloma-mediated bone degeneration in NSG mice; experiment: MM.1S/NSG systemic myeloma xenograft, μCT of femurs; format: in vivo, mouse; conditions: 5 mg/kg i.p. daily for 4 days
A549 cells = experiment: Cytotoxicity assay (MTS), A549; format: cell-based; conditions: 48 h
Description: MTS absorbance was measured in a Tecan plate reader.

[9] = system: panel of 50 protein kinases; experiment: Kinase specificity profiling, panel of 50 protein kinases (33P-ATP); format: biochemical; conditions: 1 μM TIR-199 (20-fold PSMB5 IC50); triplicate reactions
Description: TIR-199 specificity profiling assays were carried out at The International Centre for Protein Kinase Profiling (http://www.kinase-screen.mrc.ac.uk/). TIR-199 kinase specificity was determined against a panel of 50 protein kinases as described previously. The assay mixes and ^33P-γATP were added by Multidrop 384 (Thermo). Results are presented as a percentage of kinase activity in DMSO control reactions. Protein kinases were assayed in vitro with 1 μM final concentration of TIR-199 and the results are presented as an average of triplicate reactions ± SD or in the form of comparative histograms.
Kinase profiling of TIR-199 at 1 μM was carried out against the panel of 50 kinases at the
International Centre for Protein Kinase Profiling (http://www.kinase-screen.mrc.ac.uk/).
(1 picture or pasted object on this page, not shown here)

[10] = vs vehicle, distal and proximal femur combined, n=6 femurs

| SMILES | PSMB9 activity at single concentration [1] | proteasomal activity of AA/TV PSMB5 ([2]; 10 nM bortezomib) | accumulation of ubiquitylated proteins (immunoblot) (HEK293T cells; 100 nM bortezomib for 4 h) | proteasomal activity of WT PSMB5 ([3]; 10 nM bortezomib) | caspase-like activity of PSMB9 ([1]; up to 250 nM TIR-199, 100 μM Ac-PAL-AMC) | PSMB8 activity at single concentration [4] | IC50 [5] [nM] | chymotryptic-like endogenous proteasome activity in cell lysates [6] | chymotryptic-like proteasome activity compared with DMSO [7] | proteasomal activity of AA/TV PSMB5 ([2]; 100 nM TIR-199) | myeloma-mediated bone degeneration ([8]; femurs 7 days after dosing) | % bone volume over total volume (% BV/TV), femur μCT [8, 10] | trabecular number (Tb.N), femur μCT [8, 10] | trabecular separation (Tb.Sp), femur μCT [8, 10] | accumulation of ubiquitylated proteins (immunoblot) (HEK293T cells; 200 nM TIR-199 for 4 h) | proteasome substrates p62, IKBα and p21 protein levels (immunoblot) (HEK293T cells; 250 nM TIR-199 for 6 h (legend: 0.5 μM)) | sensitivity to TIR-199 within lung cancer panel (A549 cells) | IC50 [3] [nM] | proteasomal activity of WT PSMB5 ([3]; 100 nM TIR-199) | inhibition of 50 kinases in vitro [9] |
| --- | --- | --- | --- | --- | --- | --- | --- | --- | --- | --- | --- | --- | --- | --- | --- | --- | --- | --- | --- | --- |
| COc1ccc(C[C@H](NC(=O)[C@H](C)NC(=O)CN2CCOCC2)C(=O)N[C@@H](Cc2ccccc2)C(=O)C2(C)CO2)cc1 (stereo in doubt) [ONX-0914, reference compound] | did not inhibit |  |  |  |  |  |  |  |  |  |  |  |  |  |  |  |  |  |  |  |
| CC(C)C[C@H](NC(=O)[C@H](Cc1ccccc1)NC(=O)c1cnccn1)B(O)O [bortezomib, reference compound] |  | significant resistance | accumulation of ubiquitylated proteins | dramatic reduction in proteasomal activity |  |  |  |  |  |  |  |  |  |  |  |  |  |  |  |  |
| CCCCCCCCCCCCNC(=O)N[C@H](C(=O)N[C@H]1/C=C/CCNC(=O)/C=C/[C@H](C)NC1=O)C(C)C [TIR-199] | did not inhibit |  |  |  | largely more resistant | inhibited PSMB8 potently | ~100 | inhibition of chymotryptic-like endogenous proteasome activity | decreased significantly | equally sensitive | slowed down the myeloma-mediated bone degeneration process | not significant | higher trabecular number | significantly lower trabecular separation | accumulation of ubiquitylated proteins | protein levels increased | relatively more resistant | 50 | equally sensitive | does not inhibit |
